Data: ChEMBL document CHEMBL1201862, “PubChem BioAssay data set” (2004)
Calls of active or inactive are those of the source.

Assays:
[1] = target: Heat shock protein HSP 90-alpha (Homo sapiens, UniProt P07900); assay type: functional, organism-based
[2] = target: T1, Rac GTPase-activating protein 1 (Homo sapiens, UniProt Q9H0H5); assay: MgcRacGAP GTPase-activating activity inhibitors, confirmation, biochemical, ADP Hunter fluorescence, primary and confirmatory (AID 624330); assay type: functional
T1 sequence (Q9H0H5 whole entry): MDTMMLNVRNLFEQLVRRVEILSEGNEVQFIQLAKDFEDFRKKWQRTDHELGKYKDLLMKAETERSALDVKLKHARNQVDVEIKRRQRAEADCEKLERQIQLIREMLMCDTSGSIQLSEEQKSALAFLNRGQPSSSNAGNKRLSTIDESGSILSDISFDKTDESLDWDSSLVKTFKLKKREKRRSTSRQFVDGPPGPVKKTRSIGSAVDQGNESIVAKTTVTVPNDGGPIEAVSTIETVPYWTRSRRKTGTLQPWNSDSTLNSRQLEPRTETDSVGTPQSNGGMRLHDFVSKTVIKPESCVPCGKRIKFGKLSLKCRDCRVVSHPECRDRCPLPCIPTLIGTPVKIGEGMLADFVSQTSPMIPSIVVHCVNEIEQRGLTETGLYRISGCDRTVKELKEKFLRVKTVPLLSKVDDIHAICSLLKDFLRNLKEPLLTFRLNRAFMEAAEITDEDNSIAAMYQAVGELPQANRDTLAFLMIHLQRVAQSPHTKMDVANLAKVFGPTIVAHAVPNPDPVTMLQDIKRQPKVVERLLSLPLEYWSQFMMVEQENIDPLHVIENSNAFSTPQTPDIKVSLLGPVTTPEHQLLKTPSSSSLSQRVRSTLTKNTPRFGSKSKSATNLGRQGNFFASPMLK

[3] = inhibitors of firefly luciferase expression or activity, dose response, H4 neuroglioma cells, luminescence (AID 1990); assay type: functional, cell-based
[4] = tested on: Streptococcus sp. 'group A'; assay: growth inhibition of control SK(-) GAS strain, dose response, counter-screen for streptokinase expression inhibitor project, luminescence, kanamycin, BacTiterGlo, confirmation (AID 1900); assay type: functional, organism-based
[5] = Luminescence Cell-Based Dose Response HTS to Identify Inhibitors of 5'UTR Stem-Loop Driven Prion Protein mRNA Translation in H4 Neuroglioblastoma Cells. [Related pubchem assays: 1827 (Project Summary), 1813 (Primary HTS)]; assay type: functional
[6] = inhibitors of SNCA 5'UTR-driven reporter translation, confirmation, H4 neuroglioma cells, luminescence (AID 1988); assay type: functional, cell-based
Streptokinase A = target: T2, Streptokinase A (Streptococcus pyogenes serotype M1, UniProt P10520); assay: S. pyogenes streptokinase expression inhibitors, potency, dose response, plasminogen activation absorbance, OD405 (AID 1914); assay type: functional, Streptococcus pyogenes M1 GAS;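 also: secreted streptokinase activity via plasminogen activation per viability signal from cell pellet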
T2 sequence (P10520 whole entry): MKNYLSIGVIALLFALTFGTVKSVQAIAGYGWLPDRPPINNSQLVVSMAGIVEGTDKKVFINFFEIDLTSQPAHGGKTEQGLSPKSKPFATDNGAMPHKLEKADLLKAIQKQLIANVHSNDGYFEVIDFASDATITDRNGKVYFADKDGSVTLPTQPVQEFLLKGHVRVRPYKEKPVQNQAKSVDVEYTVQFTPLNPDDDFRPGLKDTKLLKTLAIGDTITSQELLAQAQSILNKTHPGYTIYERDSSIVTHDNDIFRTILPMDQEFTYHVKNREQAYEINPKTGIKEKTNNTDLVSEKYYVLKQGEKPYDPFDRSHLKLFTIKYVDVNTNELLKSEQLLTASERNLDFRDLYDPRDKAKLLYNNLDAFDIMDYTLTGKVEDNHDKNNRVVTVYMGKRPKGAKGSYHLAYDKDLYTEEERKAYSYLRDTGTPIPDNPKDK

Streptococcus = assay: Group A Streptococcus viability loss, dose response, counter-screen for streptokinase expression inhibitor project, luminescence, BacTiterGlo (AID 1915); assay type: functional, organism-based;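 also: potency for reduction of bacterial viability or growth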
INS1 = assay: beta cell apoptosis inhibitors, cytokine rescue, dose response, luminescence, retest (AID 449756); assay type: functional, cell-based; conditions: Rattus norvegicus;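 also: cell death triggered by IL-1 beta plus TNF-alpha plus IFN-gamma mixture; protective hits raise ATP signal compared with cytokine alone wells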
[7] = target: T3, Calpain-2 catalytic subunit (Sus scrofa, UniProt P43367); assay: pig calpain II inhibitor potency, dose response, biochemical, fluorogenic peptide substrate (AID 1420); assay type: functional
T3 sequence (P43367 whole entry): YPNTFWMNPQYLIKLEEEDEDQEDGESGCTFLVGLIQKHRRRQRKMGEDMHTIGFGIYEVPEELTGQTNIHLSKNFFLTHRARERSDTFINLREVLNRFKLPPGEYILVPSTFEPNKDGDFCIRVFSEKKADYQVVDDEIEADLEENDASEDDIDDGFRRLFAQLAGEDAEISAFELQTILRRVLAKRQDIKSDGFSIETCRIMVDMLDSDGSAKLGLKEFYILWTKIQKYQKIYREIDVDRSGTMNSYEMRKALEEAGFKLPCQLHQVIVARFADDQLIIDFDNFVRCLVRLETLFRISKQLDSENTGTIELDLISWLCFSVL

Large T antigen = Large T antigen (Simian virus 40, UniProt P03070); assay type: functional, Betapolyomavirus macacae;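 also: Confirmatory-stage PubChem screen for compounds that inhibit SV40 T antigen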
Chain of Large T antigen (P03070 whole entry): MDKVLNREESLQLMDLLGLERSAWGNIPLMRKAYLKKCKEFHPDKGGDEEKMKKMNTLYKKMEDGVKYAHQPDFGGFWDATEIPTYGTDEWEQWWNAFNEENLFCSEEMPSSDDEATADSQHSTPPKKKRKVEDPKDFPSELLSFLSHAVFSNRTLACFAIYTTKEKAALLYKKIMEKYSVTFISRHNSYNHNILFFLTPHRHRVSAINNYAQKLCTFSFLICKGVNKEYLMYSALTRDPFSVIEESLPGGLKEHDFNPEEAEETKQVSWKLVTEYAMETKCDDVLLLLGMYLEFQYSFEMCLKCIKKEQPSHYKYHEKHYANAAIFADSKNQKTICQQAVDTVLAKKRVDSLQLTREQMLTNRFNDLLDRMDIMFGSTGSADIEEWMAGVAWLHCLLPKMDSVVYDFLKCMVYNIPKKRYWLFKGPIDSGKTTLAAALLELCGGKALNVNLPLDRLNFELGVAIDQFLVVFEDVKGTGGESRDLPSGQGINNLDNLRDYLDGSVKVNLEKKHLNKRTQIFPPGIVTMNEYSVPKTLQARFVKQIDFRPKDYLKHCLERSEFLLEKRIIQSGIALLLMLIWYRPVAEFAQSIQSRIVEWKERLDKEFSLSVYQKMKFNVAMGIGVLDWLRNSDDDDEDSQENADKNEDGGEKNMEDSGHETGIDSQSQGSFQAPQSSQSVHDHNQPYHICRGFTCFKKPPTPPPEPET

BJ [8] = assay: cytotoxicity toward BJ-TERT fibroblasts, dose response, cell-based, RAS-independent, luminescence (AID 1933); assay type: functional; conditions: Homo sapiens
BJ [9] = assay: cells; assay type: functional, cell-based; conditions: Homo sapiens
BJ [10] = assay: cytotoxicity toward BJ-TERT-LT-ST fibroblasts, dose response, cell-based, RAS-independent, luminescence (AID 1935); assay type: functional; conditions: Homo sapiens;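 also: BJ fibroblasts immortalized with TERT plus LT and ST oncogenes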
[11] = cytotoxicity toward DRD oncogenic fibroblasts, dose response, cell-based, non-viral oncogenic, luminescence (AID 1934); assay type: functional; conditions: Homo sapiens
[12] = target: T4, Heat shock factor protein 1 (Mus musculus, UniProt P38532); assay: HSF1 potentiators in luciferase reporter cells, confirmation, cell-based, NIH3T3, luminescence, dose retest (AID 435004); assay type: functional;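 also: stress induced by proteasome inhibitor MG132 added 30 min after compound; luciferase reporter driven by HSF1 response element in NIH3T3 cells; actives raise luminescence as potentiators of the MG132 stress response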
T4 sequence (P38532 whole entry): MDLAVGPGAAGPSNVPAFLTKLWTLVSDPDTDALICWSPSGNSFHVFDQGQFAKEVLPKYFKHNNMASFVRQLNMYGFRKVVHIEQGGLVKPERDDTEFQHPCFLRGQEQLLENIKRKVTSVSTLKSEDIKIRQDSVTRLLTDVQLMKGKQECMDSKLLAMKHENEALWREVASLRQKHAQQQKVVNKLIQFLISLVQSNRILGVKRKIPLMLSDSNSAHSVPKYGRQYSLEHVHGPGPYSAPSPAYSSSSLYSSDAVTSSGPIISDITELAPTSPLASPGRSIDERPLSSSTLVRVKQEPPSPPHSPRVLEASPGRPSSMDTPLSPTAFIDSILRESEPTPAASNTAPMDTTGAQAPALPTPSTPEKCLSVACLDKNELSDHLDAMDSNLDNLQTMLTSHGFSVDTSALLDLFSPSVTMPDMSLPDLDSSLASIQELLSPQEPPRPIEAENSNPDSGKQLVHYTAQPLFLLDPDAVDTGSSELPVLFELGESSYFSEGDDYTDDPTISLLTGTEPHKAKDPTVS

[13] = target: T5, Replicative DNA helicase DnaB (Mycobacterium tuberculosis, UniProt P9WMR3); assay: DnaB intein splicing inhibitors, dose response, biochemical, cell-free fluorescence (AID 449749); assay type: functional
T5 sequence (P9WMR3 whole entry): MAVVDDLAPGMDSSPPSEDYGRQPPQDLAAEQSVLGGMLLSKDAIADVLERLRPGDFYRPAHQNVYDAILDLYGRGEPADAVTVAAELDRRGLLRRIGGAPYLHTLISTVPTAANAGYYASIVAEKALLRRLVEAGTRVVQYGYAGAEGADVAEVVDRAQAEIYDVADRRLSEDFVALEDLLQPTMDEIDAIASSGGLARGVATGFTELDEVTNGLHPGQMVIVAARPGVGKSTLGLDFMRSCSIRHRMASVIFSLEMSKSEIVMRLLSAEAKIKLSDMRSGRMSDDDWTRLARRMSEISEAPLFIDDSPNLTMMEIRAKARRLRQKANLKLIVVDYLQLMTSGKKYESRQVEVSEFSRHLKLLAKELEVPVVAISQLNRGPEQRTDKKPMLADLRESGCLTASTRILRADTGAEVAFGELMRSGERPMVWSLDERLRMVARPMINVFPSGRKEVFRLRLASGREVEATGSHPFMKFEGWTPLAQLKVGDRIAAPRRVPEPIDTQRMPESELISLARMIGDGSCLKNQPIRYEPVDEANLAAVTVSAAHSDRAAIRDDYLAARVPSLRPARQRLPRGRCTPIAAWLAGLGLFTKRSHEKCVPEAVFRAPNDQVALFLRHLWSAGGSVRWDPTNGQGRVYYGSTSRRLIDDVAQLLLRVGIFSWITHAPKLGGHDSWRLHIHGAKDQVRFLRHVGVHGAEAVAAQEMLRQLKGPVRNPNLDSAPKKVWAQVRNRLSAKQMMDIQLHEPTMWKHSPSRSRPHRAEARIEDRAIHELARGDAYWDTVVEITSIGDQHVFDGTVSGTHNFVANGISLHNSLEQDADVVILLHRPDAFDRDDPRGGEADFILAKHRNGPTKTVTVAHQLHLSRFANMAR

Protein RecA = target: T6, Protein RecA (Mycobacterium tuberculosis, UniProt P9WHJ3); assay: Fluorescence Cell-Free Homogeneous Dose Retest to Identify Inhibitors of RecA-Intein Splicing Activity. [Related pubchem assays (depositor defined):AID2097, AID2223, AID489010, AID492950]; assay type: functional
T6 sequence (P9WHJ3 whole entry): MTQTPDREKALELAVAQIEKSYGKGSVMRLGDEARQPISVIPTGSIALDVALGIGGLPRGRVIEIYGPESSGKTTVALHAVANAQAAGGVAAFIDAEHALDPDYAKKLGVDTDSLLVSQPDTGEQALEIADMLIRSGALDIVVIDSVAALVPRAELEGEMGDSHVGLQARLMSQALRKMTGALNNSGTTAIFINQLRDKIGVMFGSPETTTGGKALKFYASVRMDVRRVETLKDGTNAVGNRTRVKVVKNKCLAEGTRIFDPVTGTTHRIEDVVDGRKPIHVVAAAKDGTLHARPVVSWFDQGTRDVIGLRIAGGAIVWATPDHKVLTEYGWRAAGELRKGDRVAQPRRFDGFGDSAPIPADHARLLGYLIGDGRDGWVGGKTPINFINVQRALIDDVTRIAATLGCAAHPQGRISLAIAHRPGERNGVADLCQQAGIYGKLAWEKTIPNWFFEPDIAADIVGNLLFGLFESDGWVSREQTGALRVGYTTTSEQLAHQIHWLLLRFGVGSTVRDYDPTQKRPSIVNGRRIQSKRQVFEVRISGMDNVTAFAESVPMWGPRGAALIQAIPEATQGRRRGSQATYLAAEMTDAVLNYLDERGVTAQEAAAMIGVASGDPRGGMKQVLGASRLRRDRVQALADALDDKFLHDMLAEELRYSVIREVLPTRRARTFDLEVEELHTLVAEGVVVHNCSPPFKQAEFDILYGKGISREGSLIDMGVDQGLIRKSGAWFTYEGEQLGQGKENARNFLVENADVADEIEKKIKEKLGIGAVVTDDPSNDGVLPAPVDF

[14] = inhibitors of intracellular T. cruzi replication, confirmation, NIH3T3 host cells, beta-gal luminescence (AID 2044); assay type: functional, cell-based;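 also: intracellular parasites grown in NIH/3T3 mouse fibroblasts as host cells; luminescent beta-galactosidase reporter signal from transgenic T. cruzi replicating inside host cells; inhibitors lower the luminescence signal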
[15] = cytotoxicity toward NIH3T3 fibroblasts, dose response, counter-screen, cell-based, ATP luminescence, mouse fibroblasts (AID 2010); assay type: functional;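 also: cells exposed to compound for about 90 hours before reading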

O=c1cc(-c2ccccc2)cc(-c2ccccc2)n1O
AC50 [1]: 1.13 µM (active)

COc1cc(CN(C)CCc2ccccn2)cc(OC)c1OC
IC50 [2]: 101 µM (active)

O=C(N/N=C/c1cc([N+](=O)[O-])ccc1O)c1cccc(NC(=O)c2cccc(Cl)c2)c1
EC50 [3]: 12.7 µM (active) | EC50 [4]: 5.18 µM (active) | EC50 [5]: 13.3 µM (active) | EC50 [6]: 10.6 µM (active) | EC50 (Streptokinase A): > 150 µM (not active) | EC50 (Streptococcus): 18.7 µM (active) | AC50 (INS1): 2.18 µM (active)

C=CCNc1ccc(N2C(=O)C3CCC(C)CC3C2=O)cc1[N+](=O)[O-] (stereo unspecified)
IC50 [7]: 4.48 µM (not active)

COc1ccc(NC(=O)CN2CCN(c3nc(-c4ccc(F)cc4)cs3)CC2)c(OC)c1
IC50 [7]: 5.73 µM (not active)

NS(=O)(=O)c1cccc(NC(=O)CN2CCC(Cc3ccccc3)CC2)c1
IC50 [7]: 25.9 µM (not active)

COc1cc(/C=N/NC(=O)CCc2ccccc2)ccc1O
IC50 [2]: 28.7 µM (active)

COC(=O)c1ccc(NC2(C#N)C(=O)Nc3ccccc32)cc1 (stereo unspecified)
IC50 [7]: > 50 µM (not active)

O=C(CNC1CCCCCC1)Nc1ccccc1N1CCOCC1
IC50 [2]: 177 µM (active)

CC1CCN([S+]([O-])C23CC4CC(CC(C4)C2)C3)CC1 (stereo unspecified)
IC50 [7]: > 50 µM (not active)

COC(C(=O)N/N=C(\C)CC(=O)Nc1ccc(N(C)C)cc1)c1ccccc1 (stereo unspecified)
IC50 (Large T antigen): 11.1 µM (active) | IC50 [2]: 50.3 µM (active)

ClC(Cl)(Cl)c1nc2ccccc2n2nncc12
EC50 (BJ [8]): 6.96 µM (inconclusive) | EC50 (BJ [9]): 13.7 µM (active) | EC50 (BJ [10]): 18.7 µM (active) | EC50 [11]: 13.1 µM (active) | EC50 [12]: 5.46 µM (active) | AC50 [13]: 39.3 µM (active) | EC50 (Protein RecA): 6.03 µM (active)

Cc1[nH]c2ccccc2c1CCN(Cc1cccnc1)C(S)=Nc1ccc(F)cc1
IC50 [7]: > 50 µM (not active)

Oc1nc(SCc2ccccc2Cl)nc(-c2ccc(Cl)cc2)n1
IC50 [7]: 4.51 µM (not active)

N#CC(c1ccncc1)(c1ncc(C(F)(F)F)cc1Cl)N1CCOCC1 (stereo unspecified)
IC50 [7]: 19.2 µM (not active)

OC(COc1ccccc1)Cn1c2ccccc2c2ccccc21 (stereo unspecified)
IC50 [7]: 7.48 µM (not active)

CCCCCCCCCCOC(=O)C[N+](C)(C)C/C=C(/C)Cl
AC50 (INS1): 13.3 µM (active)

Oc1ccc(-c2csc(Nc3ccccn3)n2)cc1
IC50 [2]: 65.8 µM (active)

Cc1cccc(-c2noc(CN(C(=O)/C=C/c3ccccc3Cl)C(C)C)n2)c1
IC50 [7]: 13.3 µM (not active)

Cc1ccnc(NC(=O)c2ccc([N+](=O)[O-])s2)c1
EC50 [14]: 0.743 µM (active) | EC50 [15]: > 60 µM (not active) | AC50 (INS1): 6.55 µM (active)

Cn1nnnc1SC(C(=O)Nc1cccc(C(F)(F)F)c1)c1ccccc1 (stereo unspecified)
IC50 [7]: 16.4 µM (active)
